According to PubChem BioAssay AID248 (DTP/NCI, 2004):
Toxic doses and inconclusive results are not listed. Rule as the data show it: active = T/C of 150% or more; inactive = T/C below 125%.

Tested on: L1210 leukemia ip in BDF1 mice, survival T/C
Experiment: NCI In Vivo Anticancer Drug Screen. Data for tumor model L1210 Leukemia (intraperitoneal) in B6D2F1 (BDF1) mice
Details: endpoint: mean survival time, higher = longer survival
Procedure, shortened: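 Transplantable tumor model; survival measured in treated vs vehicle control mice. Value = treated/control.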

Measured: T/C

O=[N+]([O-])c1cc(C=Nc2ccccc2)ccc1Cl
inactive: dose: 100.0 mg/kg/injection, schedule: Q01DX009 (ip), vehicle: saline 97 % of control | dose: 100.0 mg/kg/injection, schedule: Q04DX003 (ip), vehicle: Klucel (hydroxypropylcellulose) (HPC) 94 % of control | dose: 200.0 mg/kg/injection, schedule: Q01DX009 (ip), vehicle: saline 108 % of control | dose: 200.0 mg/kg/injection, schedule: Q04DX003 (ip), vehicle: Klucel (hydroxypropylcellulose) (HPC) 100 % of control | dose: 400.0 mg/kg/injection, schedule: Q01DX009 (ip), vehicle: saline 103 % of control | dose: 400.0 mg/kg/injection, schedule: Q04DX003 (ip), vehicle: Klucel (hydroxypropylcellulose) (HPC) 97 % of control
